Measurements from US20260364079A1 (Principia Biopharma Inc., priority 2022, published 2026).
Where “and” joins values, the source holds several entries; their conditions need not be identical. Identical values can stand only once.

Experiment: phase 1/2 study in relapsed/refractory ITP (NCT03395210), safety
Conditions: for Time From Initial Treatment to Rescue Use: single patient
Source text: The Safety Population was used for all safety analyses.
Pre-existing conditions that worsened during a study were reported as AEs.
Safety was graded per NCI CTCAE, version 4.0.

[1] = treatment-related TEAE, any grade
[2] = treatment-related TEAE, grade 1
[3] = treatment-related TEAE, grade 2
[4] = treatment-related TEAE, grade 3/4

SMILES: CC(C)(C=C(C#N)C(=O)N1CCC[C@@H](n2nc(-c3ccc(Oc4ccccc4)cc3F)c3c(N)ncnc32)C1)N1CCN(C2COC2)CC1 (mixture of isomers) [rilzabrutinib, (R)-2-[3-[4-amino-3-(2-fluoro-4-phenoxy-phenyl)pyrazolo[3,4-d]pyrimidin-1-yl]piperidine-1-carbonyl]-4-methyl-4-[4-(oxetan-3-yl)piperazin-1-yl]pent-2-enenitrile]
- Rescue medication received but discontinued due to unrelated adverse events (in vivo): Two
- TEAE leading to discontinuation: grade 3 GI hemorrhage (in vivo): 1 patient
- TEAE leading to discontinuation: grade 4 Evans syndrome (in vivo): 1 patient
- TEAE leading to discontinuation: grade 4 thrombocytopenia (in vivo): 1 patient
- TEAE resulting in study drug discontinuation (in vivo): Seven
- TEAE resulting in study drug discontinuation: administrative and site conditions (in vivo): 1 (2%) patients (%)
- TEAE resulting in study drug discontinuation: gastrointestinal (GI) disorders (in vivo): 4 (70%) patients (%)
- TEAE resulting in study drug discontinuation: lymphatic system disorders (in vivo): 2 (40%) patients (%)
- TEAEs leading to study drug discontinuation reported as serious adverse events (in vivo): Four
- Use of rescue medication as cause of study discontinuation (in vivo): four
- serious adverse events leading to discontinuation related to treatment (in vivo): none were related to rilzabrutinib treatment
- toxicity across all doses (in vivo): only low-grade toxicity across all doses
- treatment-related discontinuation: grade 1 fatigue (in vivo): 1 patient
- treatment-related discontinuation: grade 2 GI disorders (in vivo): 2 patients
- infections, thrombotic events, cardiac arrhythmias, liver toxicity, or increased bleeding (limited follow up time): no evidence of infections, thrombotic events, cardiac arrhythmias, liver toxicity, or increased bleeding
- adverse events typically associated with BTK inhibitors (neutropenia, treatment-related infections, bleeding, thrombotic events, fungal infections, atrial fibrillation): no signs or symptoms of adverse events typically associated with BTK inhibitors
- related treatment-emergent serious adverse events (open-label Phase 1/2 study in ITP): no related treatment-emergent serious adverse events
- Time From Initial Treatment to Rescue Use (200 mg qd, baseline 24 × 10^9/L): Day 36
- Time From Initial Treatment to Rescue Use (300 mg bid, baseline 3 × 10^9/L): Day 29
- Time From Initial Treatment to Rescue Use (400 mg bid, baseline 18 × 10^9/L): Day 11
- Abdominal discomfort [1]: 1 (2) number of patients (percent)
- Abdominal distension [1]: 4 (7) number of patients (percent)
- Abdominal pain [1]: 2 (3) number of patients (percent)
- Abnormal dreams [1]: 1 (2) number of patients (percent)
- Akathisia [1]: 1 (2) number of patients (percent)
- Alopecia [1]: — (represents zero events)
- Anemia [1]: — (represents zero events)
- Any TEAE [1]: 31 (52) number of patients (percent)
- Arthralgia [1]: — (represents zero events)
- Arthropod bite [1]: — (represents zero events)
- Back pain [1]: 1 (2) number of patients (percent)
- Conjunctival hemorrhage [1]: — (represents zero events)
- Contusion [1]: 1 (2) number of patients (percent)
- Costochondritis [1]: — (represents zero events)
- Cough [1]: — (represents zero events)
- Decreased appetite [1]: 1 (2) number of patients (percent)
- Defecation urgency [1]: 1 (2) number of patients (percent)
- Diarrhea [1]: 19 (32) number of patients (percent)
- Dizziness [1]: — (represents zero events)
- Dyspepsia [1]: 1 (2) number of patients (percent)
- Dyspnea [1]: — (represents zero events)
- Dyspnea exertional [1]: — (represents zero events)
- Edema [1]: 1 (2) number of patients (percent)
- Epigastric discomfort [1]: 1 (2) number of patients (percent)
- Epistaxis [1]: — (represents zero events)
- Erysipelas [1]: 1 (2) number of patients (percent)
- Fatigue [1]: 6 (10) number of patients (percent)
- Frequent bowel movements [1]: 1 (2) number of patients (percent)
- Headache [1]: 2 (3) number of patients (percent)
- Heavy menstrual bleeding [1]: — (represents zero events)
- Hypoesthesia [1]: 1 (2) number of patients (percent)
- Hypophosphatemia [1]: — (represents zero events)
- I lot flush [1]: 1 (2) number of patients (percent)
- Ilypokalemia [1]: 1 (2) number of patients (percent)
- Increased white blood cell count [1]: 1 (2) number of patients (percent)
- Maculo-papular rash [1]: 1 (2) number of patients (percent)
- Malaise [1]: 1 (2) number of patients (percent)
- Micturition urgency [1]: 1 (2) number of patients (percent)
- Muscle spasms [1]: 1 (2) number of patients (percent)
- Myalgia [1]: 1 (2) number of patients (percent)
- Nasal congestion [1]: — (represents zero events)
- Nasopharyngitis [1]: — (represents zero events)
- Nausea [1]: 18 (30) number of patients (percent)
- Peripheral swelling [1]: — (represents zero events)
- Petechiae [1]: — (represents zero events)
- Pruritus [1]: 2 (3) number of patients (percent)
- Purpura [1]: — (represents zero events)
- Rash [1]: 1 (2) number of patients (percent)
- Thrombocytopena [1]: — (represents zero events)
- Upper abdominal pain [1]: 2 (3) number of patients (percent)
- Upper respiratory tract infection [1]: — (represents zero events)
- Urinary tract infection [1]: — (represents zero events)
- Vomiting [1]: 3 (5) number of patients (percent)
- diarrhea [1]: 32%
- fatigue [1]: 10%
- nausea [1]: 30%
- Abdominal discomfort [2]: 1 (2) number of patients (percent)
- Abdominal distension [2]: 4 (7) number of patients (percent)
- Abdominal pain [2]: — (represents zero events)
- Abnormal dreams [2]: 1 (2) number of patients (percent)
- Akathisia [2]: 1 (2) number of patients (percent)
- Alopecia [2]: — (represents zero events)
- Anemia [2]: — (represents zero events)
- Any TEAE [2]: 27 (45) number of patients (percent)
- Arthralgia [2]: — (represents zero events)
- Arthropod bite [2]: — (represents zero events)
- Back pain [2]: — (represents zero events)
- Conjunctival hemorrhage [2]: — (represents zero events)
- Contusion [2]: 1 (2) number of patients (percent)
- Costochondritis [2]: — (represents zero events)
- Cough [2]: — (represents zero events)
- Decreased appetite [2]: 1 (2) number of patients (percent)
- Defecation urgency [2]: — (represents zero events)
- Diarrhea [2]: 16 (27) number of patients (percent)
- Dizziness [2]: — (represents zero events)
- Dyspepsia [2]: 1 (2) number of patients (percent)
- Dyspnea [2]: — (represents zero events)
- Dyspnea exertional [2]: — (represents zero events)
- Edema [2]: 1 (2) number of patients (percent)
- Epigastric discomfort [2]: — (represents zero events)
- Epistaxis [2]: — (represents zero events)
- Erysipelas [2]: — (represents zero events)
- Fatigue [2]: 5 (8) number of patients (percent)
- Frequent bowel movements [2]: — (represents zero events)
- Headache [2]: 2 (3) number of patients (percent)
- Heavy menstrual bleeding [2]: — (represents zero events)
- Hypoesthesia [2]: — (represents zero events)
- Hypophosphatemia [2]: — (represents zero events)
- I lot flush [2]: — (represents zero events)
- Ilypokalemia [2]: 1 (2) number of patients (percent)
- Increased white blood cell count [2]: — (represents zero events)
- Maculo-papular rash [2]: 1 (2) number of patients (percent)
- Malaise [2]: 1 (2) number of patients (percent)
- Micturition urgency [2]: 1 (2) number of patients (percent)
- Muscle spasms [2]: 1 (2) number of patients (percent)
- Myalgia [2]: 1 (2) number of patients (percent)
- Nasal congestion [2]: — (represents zero events)
- Nasopharyngitis [2]: — (represents zero events)
- Nausea [2]: 16 (27) number of patients (percent)
- Peripheral swelling [2]: — (represents zero events)
- Petechiae [2]: — (represents zero events)
- Pruritus [2]: 1 (2) number of patients (percent)
- Purpura [2]: — (represents zero events)
- Rash [2]: 1 (2) number of patients (percent)
- Thrombocytopena [2]: — (represents zero events)
- Upper abdominal pain [2]: 1 (2) number of patients (percent)
- Upper respiratory tract infection [2]: — (represents zero events)
- Urinary tract infection [2]: — (represents zero events)
- Vomiting [2]: 2 (3) number of patients (percent)
- Abdominal discomfort [3]: — (represents zero events)
- Abdominal distension [3]: — (represents zero events)
- Abdominal pain [3]: 2 (3) number of patients (percent)
- Abnormal dreams [3]: — (represents zero events)
- Akathisia [3]: — (represents zero events)
- Alopecia [3]: — (represents zero events)
- Anemia [3]: — (represents zero events)
- Any TEAE [3]: 15 (25) number of patients (percent)
- Arthralgia [3]: — (represents zero events)
- Arthropod bite [3]: — (represents zero events)
- Back pain [3]: 1 (2) number of patients (percent)
- Conjunctival hemorrhage [3]: — (represents zero events)
- Contusion [3]: — (represents zero events)
- Costochondritis [3]: — (represents zero events)
- Cough [3]: — (represents zero events)
- Decreased appetite [3]: — (represents zero events)
- Defecation urgency [3]: 1 (2) number of patients (percent)
- Diarrhea [3]: 3 (5) number of patients (percent)
- Dizziness [3]: — (represents zero events)
- Dyspepsia [3]: — (represents zero events)
- Dyspnea [3]: — (represents zero events)
- Dyspnea exertional [3]: — (represents zero events)
- Edema [3]: — (represents zero events)
- Epigastric discomfort [3]: 1 (2) number of patients (percent)
- Epistaxis [3]: — (represents zero events)
- Erysipelas [3]: 1 number of patients (percent) and 1 (2) number of patients (percent)
- Fatigue [3]: 1 (2) number of patients (percent)
- Frequent bowel movements [3]: 1 (2) number of patients (percent)
- Headache [3]: — (represents zero events)
- Heavy menstrual bleeding [3]: — (represents zero events)
- Hypoesthesia [3]: 1 (2) number of patients (percent)
- Hypophosphatemia [3]: — (represents zero events)
- I lot flush [3]: 1 (2) number of patients (percent)
- Ilypokalemia [3]: — (represents zero events)
- Increased white blood cell count [3]: 1 (2) number of patients (percent)
- Maculo-papular rash [3]: — (represents zero events)
- Malaise [3]: — (represents zero events)
- Micturition urgency [3]: — (represents zero events)
- Muscle spasms [3]: — (represents zero events)
- Myalgia [3]: — (represents zero events)
- Nasal congestion [3]: — (represents zero events)
- Nasopharyngitis [3]: — (represents zero events)
- Nausea [3]: 2 (3) number of patients (percent)
- Peripheral swelling [3]: — (represents zero events)
- Petechiae [3]: — (represents zero events)
- Pruritus [3]: 1 (2) number of patients (percent)
- Purpura [3]: — (represents zero events)
- Rash [3]: — (represents zero events)
- Thrombocytopena [3]: — (represents zero events)
- Upper abdominal pain [3]: 1 (2) number of patients (percent)
- Upper respiratory tract infection [3]: — (represents zero events)
- Urinary tract infection [3]: — (represents zero events)
- Vomiting [3]: 1 (2) number of patients (percent)
- Abdominal discomfort [4]: — (represents zero events)
- Abdominal distension [4]: — (represents zero events)
- Abdominal pain [4]: — (represents zero events)
- Abnormal dreams [4]: — (represents zero events)
- Akathisia [4]: — (represents zero events)
- Alopecia [4]: — (represents zero events)
- Anemia [4]: — (represents zero events)
- Arthralgia [4]: — (represents zero events)
- Arthropod bite [4]: — (represents zero events)
- Back pain [4]: — (represents zero events)
- Conjunctival hemorrhage [4]: — (represents zero events)
- Contusion [4]: — (represents zero events)
- Costochondritis [4]: — (represents zero events)
- Cough [4]: — (represents zero events)
- Decreased appetite [4]: — (represents zero events)
- Defecation urgency [4]: — (represents zero events)
- Diarrhea [4]: — (represents zero events)
- Dizziness [4]: — (represents zero events)
- Dyspepsia [4]: — (represents zero events)
- Dyspnea [4]: — (represents zero events)
- Dyspnea exertional [4]: — (represents zero events)
- Edema [4]: — (represents zero events)
- Epigastric discomfort [4]: — (represents zero events)
- Epistaxis [4]: — (represents zero events)
- Erysipelas [4]: — (represents zero events)
- Fatigue [4]: — (represents zero events)
- Frequent bowel movements [4]: — (represents zero events)
- Headache [4]: — (represents zero events)
- Heavy menstrual bleeding [4]: — (represents zero events)
- Hypoesthesia [4]: — (represents zero events)
- Hypophosphatemia [4]: — (represents zero events)
- I lot flush [4]: — (represents zero events)
- Ilypokalemia [4]: — (represents zero events)
- Increased white blood cell count [4]: — (represents zero events)
- Maculo-papular rash [4]: — (represents zero events)
- Malaise [4]: — (represents zero events)
- Micturition urgency [4]: — (represents zero events)
- Muscle spasms [4]: — (represents zero events)
- Myalgia [4]: — (represents zero events)
- Nasal congestion [4]: — (represents zero events)
- Nasopharyngitis [4]: — (represents zero events)
- Nausea [4]: — (represents zero events)
- Peripheral swelling [4]: — (represents zero events)
- Petechiae [4]: — (represents zero events)
- Pruritus [4]: — (represents zero events)
- Purpura [4]: — (represents zero events)
- Rash [4]: — (represents zero events)
- Thrombocytopena [4]: — (represents zero events)
- Upper abdominal pain [4]: — (represents zero events)
- Upper respiratory tract infection [4]: — (represents zero events)
- Urinary tract infection [4]: — (represents zero events)
- Vomiting [4]: — (represents zero events)
- grade 1 candida infection (unrelated to treatment): ‡Other infections and infestations not listed in the table that were unrelated to treatment and that occurred in a single patient each included grade 1 candida infection, fungal skin infection, and osteomyelitis; and grade 2 infected skin ulcer and oral herpes.
- patient deaths (unrelated to treatment, 400 mg bid discontinued day 8, died 135 days after initiating): 1 patient
